From US20210106567A1, “COMPOSITIONS AND METHODS FOR INHIBITING CARP-1 BINDING TO NEMO” (United States Government As Represented By The Department …, priority 2019, published 2021)

Experiments:
[1] = system: p65/RelA activation and phosphorylation of NEMO; experiment: Western blot for canonical NF-κB activation; type: cell-based; details: in presence of SNI-1
Source text: (§1) The cells were lysed to prepare protein extracts.

[2] = molecular target: T1, His-TAT-HA-CARP-1 (551-580) binding with Gst-NEMO (221-261) (Homo sapiens, UniProt Q8IX12); experiment: Pull-down and Western blot with E. coli expressed peptides; details: then washed
T1 construct: His-TAT-HA-CARP-1 (551-580); made in house; host or cells: E. coli BL21
Procedure: (§2) The biochemical mechanism of inhibition of CARP-1 (551-580; SEQ ID NO: 6) binding with NEMO (221-261; SEQ ID NO: 2) by SNI-1 was assessed. E. coli expressed Gst-NEMO (221-261; SEQ ID NO: 2) and His-TAT-HA-CARP-1 (551-580; SEQ ID NO: 6) peptides in IP-WB assays were used. […] Since Adriamycin activates ATM to regulate canonical NF-κB and DSB repair pathways, it remains to be clarified whether CARP-1 regulates RIPK1 signaling dependent and/or independent of ATM.
as §1

[3] = Dose-route determination in non-tumor-bearing mice; type: in vivo, mouse; details: 5% DMSO, 5% ethanol, 2% Tween 80 formulation
MTT cell viability = type: cell-based, murine; details: mouse, 4T1 TNBC cells; 1.0, 2.5, 5.0, or 10.0 μM over 24 h; read-out: loss of viability
Procedure: (§3) The murine TNBC cell line 4T1 that was derived from a spontaneously arising BALB/c mammary tumor were obtained from the Karmanos Cancer Institute (KCl), and were maintained in culture (Cheriyan et al. (2016) Oncotarget 7, 73370-73388). […] The cell culture media were also supplemented with 10% FBS, 100 units/ml of penicillin, and 100 μg/ml of streptomycin, and the cells were maintained at 37° C. and 5% CO2. For cell growth and MTT studies, the cells were cultured in fresh media with 5%-10% FBS prior to their treatments with various agents.
(§4) Cell Viability, Immunoprecipitation and Western Blot assays: 500-1000 cells were seeded in each well of 96 well plate and then either untreated (control) or treated with various agents for noted times. After treatment, MTT reagent was added at 0.5 mg/ml concentration for 2-4 hours at 37° C. DMSO was added to solubilize formazan and the plate was read at 570 nm in a plate reader. The histograms indicating levels of cell viability were generated by plotting the net absorbances (Rishi et al. (2003) J Biol Chem 278, 33422-33435; and Rishi et al. (2006) J Biol Chem 281, 13188-13198).

4T1 TNBC cells = experiment: MTT cell viability; type: cell-based, murine; details: Mus musculus, 72 h
Procedure: as §3, §4

[4] = system: RENCA renal cancer tumors; details: mouse, in vivo
Procedure: The subcutaneous tumor bearing mice were treated with indicated agents. […] The end-points for assessing anti-tumor activity involved qualitative determination via tumor growth inhibition (% T/C) where T is the median tumor volume of the treated mice and C is the median tumor volume of the Control mice on any given day of measurement.

cleaved RIPK1 = experiment: Western blot for RIPK1 cleavage; type: cell-based
Source text: as §1

murine TNBC cells = experiment: Cytokine ELISA of culture media; type: cell-based; details: single agent
[5] = molecular target: T2, NEMO interaction with RIPK1 (Homo sapiens, UniProt Q13546+Q9Y6K9); experiment: IP-WB in Gst-NEMO expressing HBC cells, RIPK1; type: cell-based; details: alone or in combination with Adriamycin
T2 construct: expressed in transfected cells; host or cells: HBC cells stably expressing Gst-NEMO
Procedure: as §2, §1

4T1 TNBC tumors = experiment: 4T1 TNBC syngeneic tumor efficacy study in Balb/c mice; type: in vivo, mouse
Procedure: Establishment of TNBC cell-derived xenografts in Syngeneic mice: Generation of 4T1 TNBC cell-derived sub-cutaneous xenografts in Balb/c mice were performed (Cheriyan et al. (2016) Oncotarget 7, 73370-73388; and Cheriyan et al. (2017) Oncotarget 8, 104928-104945). BALB/cAnNCr, 6-8-weeks old, female mice were purchased from Charles River Laboratories (Horsham, Pa.). Following suitable acclimation of animals, 1×10^6 4T1 TNBC cells were re-suspended in 200 μl of sterile saline, and implanted in the flanks using a 27-gauge needle. Tumors were allowed to grow to 500-1000 mg (˜10 days), and the aseptically harvested, minced into 3-4 mm^3 (30 mg) fragments and transplanted SC into naïve recipient mice using a standard 12 gauge trocar to serially maintain the tumor in vivo. For efficacy studies, tumors serially maintained in vivo were aseptically harvested and minced into 3-4 mm^3 (30 mg) fragments, then bilaterally transplanted subcutaneously along the flanks using a standard 12 gauge trocar. […] For the efficacy studies, SNI-1 was formulated in 8% DMSO (v/v) and 8% Cremophor (v/v) in cell grade water, pH4 as diluent.
Clinical grade ADR stock (2 mg/mL) was diluted to the appropriate concentration with cell grade water; pH4 and clinical grade CIS (1 mg/ml) diluted with USP 0.9% saline; pH6). Mice were monitored daily for changes in condition and body weight. Tumors were measured three times weekly by caliper and tumor volume (mg) was calculated using the following formula: (A×B2)/2 where A and B are the tumor length and width (in mm), respectively. […] Efficacy was also assessed quantitatively using tumor growth delay (T−C) defined as the difference between the median time (in days) required for the treatment group tumors (T) to reach 1000 mg and the median time (days) for the control group tumors to reach the same volume. Post last treatment, tumor tissue and samples from various organs (spleen, liver, kidney, heart, bone, and lungs) were collected. Additionally, the whole blood samples were obtained from a representative tumor-bearing mouse from each group via terminal cardiac puncture. Immuno-histochemical analyses of the tumor and tissue samples were performed for expression of activated RelA (serine 536 phosphorylated p65), total RelA, cleaved caspase-3, and CARP-1 proteins. The levels of pro-inflammatory cytokines in the sera were analyzed by sandwich ELISA assays following methods detailed herein (Cheriyan et al. (2016) Oncotarget 7, 73370-73388; and Cheriyan et al. (2017) Oncotarget 8, 104928-104945).

MDR1 = experiment: Levels of drug efflux pump MDR1; type: cell-based, human; details: MDA-MB-468 cells
Source text: Of note is that SNI-1 in combination with Adriamycin provoked a greater inhibition of tumor growth when compared with the tumor growth inhibition noted in animals treated with either agent alone. […] Since TNBCs and many other cancers are often known to express drug efflux pumps that contribute to lower efficacy of drugs in clinic and development of drug-resistant tumors, it is likely that the presence/expression of these drug efflux pumps function in part to interfere with a robust anti-tumor response to a combination of SNI-1 and Adriamycin.

MDA-MB-468 TNBC cells = experiment: MTT cell viability, SNI-1 analogs; type: cell-based, human; details: 24 h
Procedure: FIGS. 22A-B show SNI-1 analogs enhance Adriamycin inhibition of TNBC cell growth. FIGS. 22A-B show cells treated with indicated dose of noted agent for 24 h, and their viabilities determined by MTT assay. Columns represent means of three independent experiments; bars, SE.
MDA-MB-468 TNBC cells were next treated with each of the analog in vitro as a single agent or in combination with Adriamycin in vitro.

[6] = system: follicular cell lymphoma cells; experiment: Cell viability, lymphoma; type: cell-based; details: Homo sapiens; read-out: IC50, reduced viabilities
human TNBC cells = experiment: Cytokine ELISA of culture media; type: cell-based; details: versus untreated cells
[7] = system: parental and chemo-resistant human and murine TNBC cells and parental renal cancer cells; experiment: Cytokine ELISA of culture media, chemotherapy-induced secretion; type: cell-based; details: SNI-1 with Adriamycin or Cisplatin
HeLa NEMO ko cells = experiment: MTT cell viability; type: cell-based, human

T1 sequence (Q8IX12 551-580 limits assumed): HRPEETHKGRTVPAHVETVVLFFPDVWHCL
T2 sequence (Q9Y6K9 whole entry): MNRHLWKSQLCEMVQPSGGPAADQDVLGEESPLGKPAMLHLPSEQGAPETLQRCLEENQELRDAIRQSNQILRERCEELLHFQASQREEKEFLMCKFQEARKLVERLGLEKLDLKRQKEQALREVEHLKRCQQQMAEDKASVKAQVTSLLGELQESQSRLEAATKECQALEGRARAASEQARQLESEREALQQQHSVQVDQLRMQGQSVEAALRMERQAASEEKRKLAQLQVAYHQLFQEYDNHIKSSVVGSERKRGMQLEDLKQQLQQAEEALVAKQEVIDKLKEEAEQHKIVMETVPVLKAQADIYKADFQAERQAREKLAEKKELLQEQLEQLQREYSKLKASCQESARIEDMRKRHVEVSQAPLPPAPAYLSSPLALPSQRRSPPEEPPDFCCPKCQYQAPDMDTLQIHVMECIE
T2 sequence (Q13546 whole entry): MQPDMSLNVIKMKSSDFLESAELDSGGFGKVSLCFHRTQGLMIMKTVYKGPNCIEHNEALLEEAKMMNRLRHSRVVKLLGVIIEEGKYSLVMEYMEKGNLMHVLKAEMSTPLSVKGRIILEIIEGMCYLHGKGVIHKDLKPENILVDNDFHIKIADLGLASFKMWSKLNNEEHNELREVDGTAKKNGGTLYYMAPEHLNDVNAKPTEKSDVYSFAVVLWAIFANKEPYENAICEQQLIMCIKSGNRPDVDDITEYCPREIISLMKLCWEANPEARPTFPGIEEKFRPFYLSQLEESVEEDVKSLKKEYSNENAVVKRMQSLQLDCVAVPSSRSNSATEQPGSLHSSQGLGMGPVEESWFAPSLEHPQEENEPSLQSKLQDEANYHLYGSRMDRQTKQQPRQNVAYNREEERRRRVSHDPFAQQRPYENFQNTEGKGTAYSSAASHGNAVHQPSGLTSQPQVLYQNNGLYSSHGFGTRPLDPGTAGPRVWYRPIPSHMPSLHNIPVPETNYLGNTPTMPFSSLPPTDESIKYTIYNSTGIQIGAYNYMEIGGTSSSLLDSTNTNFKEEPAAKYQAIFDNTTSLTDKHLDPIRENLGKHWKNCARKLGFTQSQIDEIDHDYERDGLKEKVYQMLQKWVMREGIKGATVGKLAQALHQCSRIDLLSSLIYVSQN

Structure (SMILES): Cc1ccc(-n2nnnc2SCC(=O)c2ccc(O)c(O)c2)cc1 [SNI-1, 1-(3,4-dihydroxyphenyl)-2-{(1-(4-methylphenyl)-1H-tetrazol-5-yl)thio}ethanone]
- p65 activation and NEMO phosphorylation by Adriamycin or Cisplatin [1]: diminished p65 activation and NEMO phosphorylation
- binding of Gst-NEMO (221-261) with His-TAT-HA-CARP-1 (551-580) peptide ([2]; compound incubated with CARP-1 peptide immobilized on Ni-NTA beads): abrogated binding
- binding of His-TAT-HA-CARP-1 (551-580) with Gst-NEMO (221-261) peptide ([2]; compound incubated with Gst-NEMO peptide immobilized on Gst sepharose beads): failed to abrogate binding
- suitability for chronic intravenous administration [3]: not suitable for chronic intravenous administration
- cytotoxicity at 24 h (MTT cell viability): 10 to 20%
- IC50 (4T1 TNBC cells): 4 to 4.5 µM
- weight loss in animals [4]: 0.4-4.0%
- expression of cleaved RIPK1 (cleaved RIPK1): induced expression of cleaved RIPK1
- secretion of TNFα and IL-1β (murine TNBC cells): failed to cause increase
- NEMO interaction with RIPK1 (IP-WB) [5]: not with RIPK1
- inhibition of tumor growth (4T1 TNBC tumors; 70 mg/kg/dose i.p. QD 1-13): absent to minimal inhibition of tumor growth
- toxicities in the animals (4T1 TNBC tumors; 70 mg/kg/dose i.p. QD 1-13): did not provoke toxicities
- activated caspase-3 in normal tissues (immuno-histochemistry) (4T1 TNBC tumors; mouse, in vivo): failed to show presence of activated caspase-3
- hematoxylin and eosin staining of lungs, spleen, heart, liver, kidneys, and bone marrow (4T1 TNBC tumors; mouse, in vivo): did not indicate microscopic alterations
- cleaved caspase-3 in tumors (immuno-histochemistry) (4T1 TNBC tumors; versus untreated control animal): strong presence of cleaved caspase-3
- levels of drug efflux pump MDR1 (MDR1): robust increase
- loss of cell viability in combination with Adriamycin versus Adriamycin alone (MDA-MB-468 TNBC cells): greater loss of cell viability
- IC50 [6]: ~7.5 µM
- levels of TNFα and IL-8 in culture media (human TNBC cells): modest increase
- secretion of chemotherapy-induced TNFα, IL-8, and IL-1β [7]: robust decline in secretion
- loss of viabilities versus similarly treated wild-type HeLa cells (HeLa NEMO ko cells): further significant loss of viabilities
